Publication PMC8910920 (International Journal of Molecular Sciences, 2022)
Converted amounts (≈) assume the structure as drawn.

How the values were obtained:
hTRPM8 = target: T1, hTRPM8 (Homo sapiens, UniProt Q7Z2W7); experiment: Ca2+ microfluorography assay, HEK293 cells expressing hTRPM8; type: cell-based; conditions: HEK293-hTRPM8, 100 μM menthol
T1 construct: expressed in transfected cells
Description: This represents a similar activity as β–lactam 2 and a somewhat higher potency than the model TRPM8 antagonists AMTB.
To measure the effect of the compounds against TRPM8 activity we used microfluorometry-based calcium flux assays with Fluo-4 NW Ca^2+ dye and fluorescence as described in [30]. Briefly, human embryonic kidney cell line (HEK293) cells stably transfected with rTRPM8 or hTRPM8 were seeded in 96-well plates at a cell density of 30,000 cells. After 2 days the medium was replaced with 100 μL of the dye, Fluo-4 NW, loading solution supplemented with probenecid 2.5 mM and incubated 1 h at 37 °C. The TRPM8 activity was measured using POLASTAR plate reader (BMG Labtech) setting the excitation wavelength at 485 nm and the emission wavelength at 520 nm. The baseline fluorescence was recorded for 3 cycles before the addition of vehicle compound at different concentrations and the antagonist, 10 μM AMTB. Fluorescence intensity was recorded during 7 more cycles and 100 μM menthol was added. Fluorescence intensity was recorded during 10 more cycles.
Data analysis: The Z-factor was calculated in each assay using the following equation: (3 × (SDmax + SDmin))/(Mean max-Mean min). In all the experiments, the Z-factor was ≥0.5. The effect of the compounds against TRPM8 activity was determined by normalizing their effect on the maximum fluorescence observed after application of 100 μM menthol. […]

[1] = Aqueous solubility in simulated gastric fluid; type: physicochemical; conditions: simulated gastric conditions (pH < 5.5)
Description: These studies were subcontracted to Eurofins-CEREP or Eurofins-PANLABS. Briefly, agonists and antagonist assays were performed in cell cultures overexpressing the corresponding channel (CHO: TRPV1 and TRPA1; HEK293: TRPV3 and ASIC3). In vitro pharmacology, cellular channel functional assays: the compound was prepared in assay buffer to the final concentration, 10 μM. The compound wells, reference agonist and background vehicle controls were prepared in DMSO at 0.3%. The reference agonist for each Ion Channel assayed was prepared in a similar manner to serve as the assay control. […] The agonist assay was conducted on fluorimeter instruments where the test compound, vehicle controls, and reference agonist were added to the assay plate after a fluorescence baseline was established. […] For the antagonist assay, the compound was pre-incubated for five minutes at room temperature, and then challenged with the EC80 concentration of the reference agonist after establishment of a fluorescence baseline. […] Binding assay results are expressed as a percent of control specific binding. […] Aqueous solubility (μM) was determined by comparing the peak area of the principal peak in a calibration standard (200 μM) containing organic solvent (methanol/water, 60/40, v/v) with the peak area of the corresponding peak in a buffer sample. […] The amount of compound in organic phase was calculated by subtraction. […]

CACO-2 cell monolayers = experiment: Caco-2 permeability; type: in vitro ADME
Description: These studies were subcontracted to Eurofins-CEREP or Eurofins-PANLABS. Briefly, agonists and antagonist assays were performed in cell cultures overexpressing the corresponding channel (CHO: TRPV1 and TRPA1; HEK293: TRPV3 and ASIC3). In vitro pharmacology, cellular channel functional assays: the compound was prepared in assay buffer to the final concentration, 10 μM. The compound wells, reference agonist and background vehicle controls were prepared in DMSO at 0.3%. The reference agonist for each Ion Channel assayed was prepared in a similar manner to serve as the assay control. The reference agonist for each Ion Channel was included at Emax (the concentration where the reference agonist elicited a maximal response). The agonist assay was conducted on fluorimeter instruments where the test compound, vehicle controls, and reference agonist were added to the assay plate after a fluorescence baseline was established. The agonist assay was used to assess each compound’s ability to activate each Ion Channel assayed. For the antagonist assay, the compound was pre-incubated for five minutes at room temperature, and then challenged with the EC80 concentration of the reference agonist after establishment of a fluorescence baseline. Vehicle controls and EC80 concentration of reference agonist were added to appropriate wells. The antagonist assay was used to assess each compound’s ability to inhibit activation by the corresponding Ion Channel agonist. ASIC3 ionflux antagonist assay: all recordings were obtained from a holding potential of -60 mV. The compound addition sequence was as follows: one addition of pH5.5 buffer was added to establish the baseline response, the test concentration of compound was applied for 30 s, followed by the addition of pH5.5 of compound for 2 s. Binding assays were performed in CHO cell cultures overexpressing human CGRPR, CB2 and M2 receptors. RGM8-51 (10 μM) was tested, and reference compounds used as control agonists and antagonists are detailed in Table 2, footnote. Binding assay results are expressed as a percent of control specific binding. […] Aqueous solubility (μM) was determined by comparing the peak area of the principal peak in a calibration standard (200 μM) containing organic solvent (methanol/water, 60/40, v/v) with the peak area of the corresponding peak in a buffer sample. Partition coefficient: the total amount of compound was determined as the peak area of the principal peak in a calibration standard (100 μM) containing organic solvent (methanol/water, 60/40, v/v). The amount of compound in buffer was determined as the combined, volume-corrected, and weighted areas of the corresponding peaks in the aqueous phases of three organic-aqueous samples of different composition. An automated weighting system was used to ensure the preferred use of raw data from those samples with well quantifiable peak signals. The amount of compound in organic phase was calculated by subtraction. Subsequently, Log D was calculated as the Log10 of the amount of compound in the organic phase divided by the amount of compound in the aqueous phase. […] Permeability was measured in CACO-2 monolayers. Percentage of compounds in the receptors wells was measured using HPLC. […] In vitro metabolism was measured in human liver microsomes. […] The apparent intrinsic clearance (CLint, in μL/min/mg) was calculated from the half-life time.

T1 sequence (Q7Z2W7 whole entry): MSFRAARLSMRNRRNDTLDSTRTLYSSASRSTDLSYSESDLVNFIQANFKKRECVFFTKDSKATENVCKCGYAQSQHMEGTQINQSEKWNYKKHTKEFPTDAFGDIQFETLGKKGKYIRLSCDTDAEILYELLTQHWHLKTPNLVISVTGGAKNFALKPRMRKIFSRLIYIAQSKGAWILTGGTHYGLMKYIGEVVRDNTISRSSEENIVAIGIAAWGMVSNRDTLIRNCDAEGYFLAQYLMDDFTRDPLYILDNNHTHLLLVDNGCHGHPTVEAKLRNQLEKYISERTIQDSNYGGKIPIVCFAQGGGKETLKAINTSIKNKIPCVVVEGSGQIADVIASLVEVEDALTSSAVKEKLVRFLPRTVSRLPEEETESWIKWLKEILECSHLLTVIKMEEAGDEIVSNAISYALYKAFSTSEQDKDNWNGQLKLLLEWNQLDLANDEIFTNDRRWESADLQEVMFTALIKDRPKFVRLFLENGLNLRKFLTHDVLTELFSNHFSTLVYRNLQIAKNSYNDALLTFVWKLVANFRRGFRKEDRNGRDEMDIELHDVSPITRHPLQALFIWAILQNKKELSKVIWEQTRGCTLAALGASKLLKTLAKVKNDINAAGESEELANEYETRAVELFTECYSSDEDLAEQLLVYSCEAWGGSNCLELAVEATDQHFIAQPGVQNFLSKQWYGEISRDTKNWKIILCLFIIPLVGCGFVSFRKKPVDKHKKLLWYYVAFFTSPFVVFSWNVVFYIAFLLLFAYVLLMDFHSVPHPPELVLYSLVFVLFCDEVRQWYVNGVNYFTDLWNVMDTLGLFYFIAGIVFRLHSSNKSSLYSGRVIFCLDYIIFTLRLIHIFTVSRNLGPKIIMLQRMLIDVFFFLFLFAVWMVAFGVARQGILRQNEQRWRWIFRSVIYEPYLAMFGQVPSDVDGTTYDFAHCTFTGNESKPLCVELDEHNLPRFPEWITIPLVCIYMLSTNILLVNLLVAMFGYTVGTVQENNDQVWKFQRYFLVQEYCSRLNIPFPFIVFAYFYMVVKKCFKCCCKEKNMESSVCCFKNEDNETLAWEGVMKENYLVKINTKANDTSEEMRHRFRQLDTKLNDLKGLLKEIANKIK

C[C@@H]1C(=O)N(C[C@H](Cc2ccccc2)N(Cc2ccccc2)Cc2ccccc2)[C@]1(Cc1ccccc1)C(=O)OC(C)(C)C [RGM8-51, 4(S)-Benzyl-3S-methyl-4-(tert-butoxy)carbonyl-1-[(2′S-dibenzylamino-3′-phenyl)prop-1′-yl]-2-oxoazetidine]
IC50 (hTRPM8): 1740 ± 1190 nM | solubility [1]: 198 µM (≈ 117 µg/mL) | permeation of CACO-2 cell monolayers (CACO-2 cell monolayers): not able to permeate | Permeability B-A (%) (CACO-2 cell monolayers; CACO-2 cell monolayer): 0% | Permeability A-B (%) (CACO-2 cell monolayers; CACO-2 cell monolayer, percentage of compound in the acceptor cell): 0%
